IC50 data for 24 compounds are collected here from patent publication US20130344026A1, “Dimeric Smac Mimetics” (priority 2009, published 2013).

The test system of this experiment is PANC-1 cells. Kind of experiment: cell viability assay in PANC-1 cells (compound alone, + 100 ng/ml TNFa, + 300 ng/ml TRAIL). It counts as cell-based.
[1] abbreviates: Homo sapiens, PANC-1, compound alone, Tables 6-10, read-out: IC50 (μM) in cell viability assay in PANC-1 cells: Compound alone.
The mark [2] stands for this setting: with 100 ng/ml TNFa, Tables 6-10, read-out: IC50 (μM) in cell viability assay in PANC-1 cells: Compound + 100 ng/ml TNFa.
Setting [3] is: with 300 ng/ml TRAIL, Tables 6-10, read-out: IC50 (μM) in cell viability assay in PANC-1 cells: Compound + 300 ng/ml TRAIL.
The mark [4] stands for this setting: Homo sapiens, PANC-1, compound alone, Tables 15-18, read-out: IC50 (uM) in cell viability assay in PANC-1 cells: Cmpnd alone.
The mark [5] stands for this setting: Homo sapiens, PANC-1 cells, compound alone, read-out: IC50 (uM) in cell viability assay in PANC-1 cells, Cmpnd alone.
Setting [6] is: PANC-1 cells, + 100 ng/ml TNFa, read-out: IC50 (uM) in cell viability assay in PANC-1 cells, Cmpnd + 100 ng/ml TNFa.
[7] abbreviates: PANC-1 cells, + 300 ng/ml TRAIL, read-out: IC50 (uM) in cell viability assay in PANC-1 cells, Cmpnd + 300 ng/ml TRAIL.
Where [8] appears, read: with 100 ng/ml TNFa, Tables 15-18, read-out: IC50 (uM) in cell viability assay in PANC-1 cells: Cmpnd + 100 ng/ml TNFa.
Where [9] appears, read: with 300 ng/ml TRAIL, Tables 15-18, read-out: IC50 (uM) in cell viability assay in PANC-1 cells: Cmpnd + 300 ng/ml TRAIL.

Structures are written as SMILES. Like-named read-outs stand apart in the source and are kept apart here.

With `CN[C@@H](C)C(=O)N[C@@H](CCCCCC[C@H](NC(=O)[C@H](C)NC)C(=O)N1CCC[C@H]1CNC(=O)c1ccccc1O)C(=O)N1CCC[C@H]1CNC(=O)c1ccccc1O` [Compound 20], the IC50 under setting [1] was above 1 µM, the IC50 under setting [2] was above 1 µM and the IC50 under setting [3] was above 1 µM.

Turning to `CN[C@@H](C)C(=O)N[C@H](C(=O)N1CCC[C@H]1c1nc(C(=O)NCCC#CC#CCCNC(=O)c2nc([C@@H]3CCCN3C(=O)[C@@H](NC(=O)[C@H](C)NC)C(C)(C)C)oc2-c2c[nH]c3ccccc23)c(-c2c[nH]c3ccccc23)o1)C(C)(C)C` [Compound P4-24], the IC50 under setting [4] was above 1 µM.

Regarding `CN[C@@H](C)C(=O)N[C@@H](CCCCCC[C@H](NC(=O)[C@H](C)NC)C(=O)N1CCC[C@H]1c1ncc(C(=O)Nc2ccccc2)o1)C(=O)N1CCC[C@H]1c1ncc(C(=O)Nc2ccccc2)o1` [Compound 39], the IC50 runs as follows: under setting [1], above 1 µM; under setting [2], above 1 µM; under setting [3], above 1 µM.

For the compound `CN[C@@H](C)C(=O)N[C@H](C(=O)N1C[C@@H](NC(=O)c2cccc(C(=O)N[C@H]3C[C@@H](C(=O)NCc4cccc5[nH]ccc45)N(C(=O)[C@@H](NC(=O)[C@H](C)NC)C(C)(C)C)C3)c2)C[C@H]1C(=O)NCc1cccc2[nH]ccc12)C(C)(C)C` [Compound 7], the IC50 by setting is: under setting [1], above 1 µM; under setting [2], 0.383 µM; under setting [3], 0.217 µM.

Consider `CN[C@@H](C)C(=O)N[C@H](C(=O)N1C[C@@H](OC(=O)c2cccc(C(=O)O[C@H]3C[C@@H](C(=O)N[C@H]4CCCc5ccccc54)N(C(=O)[C@@H](NC(=O)[C@H](C)NC)C(C)(C)C)C3)c2)C[C@H]1C(=O)N[C@H]1CCCc2ccccc21)C(C)(C)C` [Compound P3-105], for which the IC50 under setting [5] was above 1 µM.

In the case of `CN[C@@H](C)C(=O)N[C@@H](CCCCCC[C@H](NC(=O)[C@H](C)NC)C(=O)N[C@H]1c2ccccc2C[C@@H]1NC(=O)c1cc2ccccc2cc1OC)C(=O)N[C@H]1c2ccccc2C[C@@H]1NC(=O)c1cc2ccccc2cc1OC` [Compound 58], the IC50 runs as follows: under setting [1], above 1 µM; under setting [2], above 1 µM; under setting [3], above 1 µM.

Take `CN[C@@H](C)C(=O)N[C@H](C(=O)N1C[C@@H](NC(=O)C23CC4CC(C2)CC(C(=O)N[C@H]2C[C@@H](C(=O)N[C@H](C)c5ccccc5)N(C(=O)[C@@H](NC(=O)[C@H](C)NC)C(C)(C)C)C2)(C4)C3)C[C@H]1C(=O)N[C@H](C)c1ccccc1)C(C)(C)C` [Compound P3-101]: the IC50 is above 1 µM under setting [5], 0.001 µM under setting [6] and 0.001 µM under setting [7].

As to `CN[C@@H](C)C(=O)N[C@H](C(=O)N[C@@H](CCNC(=O)c1ccc(CCc2ccc(C(=O)N[C@@H]3C[C@@H](C(=O)N[C@@H]4CCCc5ccccc54)N(C(=O)[C@@H](NC(=O)[C@H](C)NC)C(C)(C)C)C3)cc2)cc1)C(=O)NC(C)C(C)C)C(C)C` (some centres unmarked) [Compound 201], the IC50 reads like this: under setting [1], above 1 µM; under setting [2], 0.027 µM; under setting [3], 0.057 µM.

`CN[C@@H](C)C(=O)N[C@@H](CCCCCC[C@H](NC(=O)[C@H](C)NC)C(=O)N1Cc2ccccc2C[C@H]1C(=O)N[C@H](C)c1ccccc1)C(=O)N1Cc2ccccc2C[C@H]1C(=O)N[C@H](C)c1ccccc1` [Compound 96]: the IC50 reads like this: under setting [1], above 1 µM; under setting [2], 0.211 µM; under setting [3], 0.417 µM.

For the compound `CN[C@@H](C)C(=O)N[C@H](C(=O)N1C[C@@H](NC(=O)c2cccc(C(=O)N[C@H]3C[C@@H](C(=O)N[C@H](C)Cc4ccccc4)N(C(=O)[C@@H](NC(=O)[C@H](C)NC)C(C)(C)C)C3)c2)C[C@H]1C(=O)NC(C)Cc1ccccc1)C(C)(C)C` (some centres unmarked) [Compound 10], the IC50 is above 1 µM under setting [1], 0.065 µM under setting [2] and 0.085 µM under setting [3].

Turning to `CN[C@@H](C)C(=O)N[C@H](C(=O)N1C[C@@H](NC(=O)c2cccc(C(=O)N[C@H]3C[C@@H](C(=O)N[C@H](C)c4ccccn4)N(C(=O)[C@@H](NC(=O)[C@H](C)NC)C(C)(C)C)C3)c2)C[C@H]1C(=O)N[C@H](C)c1ccccn1)C(C)(C)C` [Compound 25], the IC50 reads like this: under setting [1], above 1 µM; under setting [2], 0.375 µM; under setting [3], 0.293 µM.

As to `CN[C@@H](C)C(=O)N[C@H](C(=O)N1C[C@@H](NC(=O)c2cccc(C(=O)N[C@H]3C[C@@H](C(=O)NCc4ccc(O)c(OC)c4)N(C(=O)[C@@H](NC(=O)[C@H](C)NC)C(C)(C)C)C3)c2)C[C@H]1C(=O)NCc1ccc(O)c(OC)c1)C(C)(C)C` [Compound 6], the IC50 by setting is: under setting [1], above 1 µM; under setting [2], 0.471 µM; under setting [3], 0.31 µM.

Consider `CN[C@@H](C)C(=O)N[C@H](C(=O)N1C[C@@H](NC(=O)c2cccc(C(=O)N[C@H]3C[C@@H](C(=O)N[C@H](CO)c4ccccc4)N(C(=O)[C@@H](NC(=O)[C@H](C)NC)C(C)(C)C)C3)c2)C[C@H]1C(=O)N[C@H](CO)c1ccccc1)C(C)(C)C` [Compound P3-99], for which the IC50 is above 1 µM under setting [5], 0.062 µM under setting [6] and 0.054 µM under setting [7].

In the case of `CN[C@@H](C)C(=O)N[C@@H](CCCCCC[C@H](NC(=O)[C@H](C)NC)C(=O)N1C[C@@H](F)C[C@H]1C(=O)N[C@@H]1CCCc2ccccc21)C(=O)N1C[C@H](F)C[C@H]1C(=O)N[C@@H]1CCCc2ccccc21` [Compound 106], the IC50 under setting [1] was above 1 µM, the IC50 under setting [2] was 0.006 µM and the IC50 under setting [3] was determined as 0.006 µM.

On to `CN[C@@H](C)C(=O)N[C@H](C(=O)N[C@@H](CCNC(=O)c1cccc(C(=O)N[C@H]2C[C@@H](C(=O)N[C@@H]3CCCc4ccccc43)N(C(=O)[C@@H](NC(=O)[C@H](C)NC)C(C)(C)C)C2)c1)C(=O)N[C@@H]1CCCc2ccccc21)C(C)(C)C` [Compound 169], for which the IC50 reads like this: under setting [1], above 1 µM; under setting [2], 0.01 µM; under setting [3], 0.028 µM.

Turning to `CN[C@@H](C)C(=O)N[C@H](C(=O)N1C[C@@H](Oc2cccc(CCCCc3cccc(O[C@H]4C[C@@H](C(=O)N[C@@H]5CCCc6ccccc65)N(C(=O)[C@@H](NC(=O)[C@H](C)NC)C(C)(C)C)C4)c3)c2)C[C@H]1C(=O)N[C@@H]1CCCc2ccccc21)C(C)(C)C` [Compound P3-104], the IC50 under setting [5] is above 1 µM, the IC50 under setting [6] worked out at 0.042 µM and the IC50 under setting [7] was found to be 0.042 µM.

Take `CN[C@@H](C)C(=O)N[C@@H](CCCCCC[C@H](NC(=O)[C@H](C)NC)C(=O)N1CCC[C@H]1CC(=O)N[C@H](C)c1ccccc1)C(=O)N1CCC[C@H]1CC(=O)N[C@H](C)c1ccccc1` [Compound 79]: the IC50 is above 1 µM under setting [1], above 1 µM under setting [2] and above 1 µM under setting [3].

As to `CN[C@@H](C)C(=O)N[C@@H](CCCCNC(=O)c1cccc(C(=O)NCCCC[C@H](NC(=O)[C@H](C)NC)C(=O)N2CCC[C@H]2Cn2nnnc2Sc2ccccc2)c1)C(=O)N1CCC[C@H]1Cn1nnnc1Sc1ccccc1` [Compound P2-48], the IC50 reads like this: under setting [4], above 1 µM; under setting [8], 0.263 µM; under setting [9], 0.398 µM.

For `CN[C@@H](C)C(=O)N[C@H](C(=O)N1CCC[C@H]1CN(CCc1ccccc1)C(=O)C(F)(F)F)[C@@H](C)OCC#CC#CCN(C(=O)[C@H](C)NC)[C@H](C(=O)N1CCC[C@H]1CN(CCc1ccccc1)C(=O)C(F)(F)F)[C@@H](C)O` [Compound P4-19], the IC50 under setting [4] was above 1 µM, the IC50 under setting [8] stood at 0.005 µM and the IC50 under setting [9] turned out to be 0.006 µM.

As for `CN[C@@H](C)C(=O)N[C@H](C(=O)N1C[C@@H](NC(=O)c2cccc(C(=O)N[C@H]3C[C@@H](C(=O)NC4CCCc5cc(F)ccc54)N(C(=O)[C@@H](NC(=O)[C@H](C)NC)C(C)(C)C)C3)c2)C[C@H]1C(=O)NC1CCCc2cc(F)ccc21)C(C)(C)C` (single isomer, unassigned) [Compound 73], the IC50 (compound alone, Tables 6-10, read-out: IC50 (μM) in cell viability assay in PANC-1 cells: Compound alone) is above 1 µM; the IC50 under setting [2] turned out to be 0.0698 µM; the IC50 under setting [3] was determined as 0.073 µM.

On to `CN[C@@H](C)C(=O)NC(C(=O)N1C[C@@H](NC(=O)c2cccc(C(=O)N[C@H]3CC(C(=O)N[C@@H]4CC5CCC4(C)C5(C)C)N(C(=O)[C@@H](NC(=O)[C@H](C)NC)C(C)(C)C)C3)c2)CC1C(=O)N[C@@H]1CC2CCC1(C)C2(C)C)C(C)(C)C` (some centres unmarked) [Compound 40], for which the IC50 reads like this: under setting [1], above 1 µM; under setting [2], 0.555 µM; under setting [3], 0.517 µM.

Take `CN[C@@H](C)C(=O)N[C@H](C(=O)N1CCCC1C(=O)N[C@H](COCC#CC#CCOC[C@@H](NC(=O)[C@H](C)NC(=O)[C@H](NC(=O)[C@@H](CO)NC)C1CCCCC1)C(C)C)C1CCCCC1)C(C)(C)C` (some centres unmarked) [Compound H-8]: the IC50 reads like this: under setting [4], above 1 µM; under setting [8], 0.017 µM; under setting [9], 0.033 µM.

On to `CN[C@@H](C)C(=O)N[C@@H](CC#CC#CC[C@H](NC(=O)[C@H](C)NC)C(=O)N1Cc2ccccc2C[C@H]1C(=O)N[C@H](C)c1ccccc1)C(=O)N1Cc2ccccc2C[C@H]1C(=O)N[C@H](C)c1ccccc1` [Compound 95], for which the IC50 is, setting by setting: under setting [1], above 1 µM; under setting [2], above 1 µM; under setting [3], above 1 µM.

For the compound `CN[C@@H](C)C(=O)N[C@H](C(=O)N1C[C@@H](NC(=O)C2CCCC(C(=O)N[C@H]3C[C@@H](C(=O)N[C@H](C)c4ccccc4)N(C(=O)[C@@H](NC(=O)[C@H](C)NC)C(C)(C)C)C3)C2)C[C@H]1C(=O)N[C@H](C)c1ccccc1)C(C)(C)C` (some centres unmarked) [Compound P3-102], the IC50 runs as follows: under setting [6], 0.017 µM; under setting [7], 0.023 µM; (PANC-1 cells, compound alone, read-out: IC50 (uM) in cell viability assay in PANC-1 cells, Cmpnd alone) above 1 µM.
